From patent US20090298843A1, “TREATMENT OF HEMATOLOGICAL MALIGNANCIES WITH FTS AND A BCR-ABL TYROSINE KINASE INHIBITOR” (RAMOT AT TEL AVIV UNIVERSITY LTD., priority 2006, published 2009)

What was measured:
[1] = test system: 697 cells (Human T-cell leukemia, ALL); assay: Cell growth inhibition assay, FTS alone (direct cell count); type: cell-based; details: for cell number in FTS-treated cells as a percentage of controls (avg): counted 48 h after addition
From the text: (§1) The following cell lines were examined, representing Acute Myeloid Leukemia (AML), Acute Lymphoblastic Leukemia (ALL), and Chronic Myeloid Leukemia (CML): 1. CEM (Human T-cell leukemia, ALL) 2. HSB-2 (Human T-cell leukemia, ALL) carrying the t(1; 7) (p34; q34) involving the lck and tcrb genes and a submicroscopic del(1)(p32) leading to the Sil-Scl fusion gene 3. 697 (Human T-cell leukemia, ALL) 4. Raji (Human Burkitt's lymphoma) with overexpression and mutation in the c-Myc gene 5. U-937 (Human histiocytic lymphoma, AML) 6. HL-60 (AML) 7. K562 (Himan, CML) with a b3-a2 fusion gene to create the Bcr-Abl chimeric oncoprotein.
(§2) Cells were grown at 37° C. in RPMI containing 5% FCS, 100 μg/mL streptomycin, and 100 units/mL penicillin and maintained in a humidified atmosphere of 95% air/5% CO2. […] Each experiment tin quadruplicate) was performed at least two times.

[2] = test system: CEM cells (Human T-cell leukemia, ALL); assay: as above; type: cell-based; details: for cell number in FTS-treated cells as a percentage of controls (avg): CEM, counted 48 h after addition
From the text: as §1, §2

[3] = test system: HSB-2 cells (Human T-cell leukemia, ALL); assay: as above; type: cell-based; details: for cell number in FTS-treated cells as a percentage of controls (avg): HSB, counted 48 h after addition
From the text: as §1, §2

K562 cells (Human, CML) [4] = assay: as above; type: cell-based; details: for cell number in FTS-treated cells as a percentage of controls (avg): counted 48 h after addition
From the text: as §1, §2

[5] = test system: Raji cells (Human Burkitt's lymphoma); assay: as above; type: cell-based; details: for cell number in FTS-treated cells as a percentage of controls (avg): counted 48 h after addition
From the text: as §1, §2

[6] = test system: U-937 cells (Human histiocytic lymphoma, AML); assay: as above; type: cell-based; details: U937; for cell number in FTS-treated cells as a percentage of controls (avg): counted 48 h after addition
From the text: as §1, §2

HL-60 cells (AML) = assay: as above; type: cell-based, Human; details: for cell number in FTS-treated cells as a percentage of controls (avg): counted 48 h after addition
From the text: as §1, §2

K562 cells (Human, CML) [7] = assay: FACS analysis of propidium iodide stained cells (cell cycle distribution, sub-G1); type: cell-based; details: for cells in sub-G1: 48 h
Protocol: Third, a FACS analysis was performed. Cells were plated at a density of 50,000 cells per ml in 10 cm plates for fluorescence-activated cell-sorting (FACS) analysis of propidium iodide stained cells. […] Forty-eight hours (48 h) later, propidium iodide mixed with 1% Triton X-100 was added to the cells, and the cell cycle distribution of the cells was assessed using a FACS machine.
[Gambacorti-Passerini, C., le Coutre, P., Mologni, L., Fanelli, M., Bertazzoli, C., Marchesi, E., Di Nicola, M., Biondi, A., Corneo, G. M., Belotti, D., Pogliani, E., Lydon, N. B., Blood Cells Mol Dis. 23(3):380-94 (1997)].

[8] = Phase-I open-label study of FTS in human patients with advanced hematologic malignancies; type: in vivo; details: for ANC, baseline level / HGB, baseline level / PLT, baseline level: before treatment
Protocol: One human patient with advanced myelodysplastic syndrome (MDS) refractory to chemotherapy was treated with FTS, at a dose of 200 b.i.d. (400 mg daily), administered on days 1 to 21 of a 28 day cycle. […] The results are graphically depicted in FIG. 7 and in Table 3 (below). Five human patients with advanced myelodysplastic syndrome (MDS), acute myelogenous leukemia (AML), or chronic myelogenous leukemia (CML) refractory to chemotherapy were treated with FTS at doses of 200 to 600 mg b.i.d. (400 to 1200 mg daily) administered on days 1 to 21 of a 28 day cycle. […]

[9] = test system: seven leukemia cell lines (CEM, HSB-2, 697, Raji, U-937, HL-60, K562); assay: Cell growth inhibition assay, FTS alone, summary over the seven cell lines; type: cell-based, Human
From the text: as §1, §2

[10] = Homo sapiens, read-out: IC50 for FTS inhibition of leukemia cell growth
[11] = person one, AML, FTS 400 mg b.i.d.
[12] = person two, AML, FTS 400 mg b.i.d.
[13] = person, MDS, FTS 200 b.i.d., days 1 to 21 of a 28 day cycle

CC(C)=CCC/C(C)=C/CC/C(C)=C/CSc1ccccc1C(=O)O [FTS, farnesylthiosalicylic acid]
cell number in FTS-treated cells as a percentage of controls (avg) ([1]; FTS 12.5 uM): 27%
cell number in FTS-treated cells as a percentage of controls (avg) ([1]; FTS 25 uM): 44%
cell number in FTS-treated cells as a percentage of controls (avg) ([1]; FTS 50 uM): 34%
cell number in FTS-treated cells as a percentage of controls (avg) ([1]; FTS 75 uM): 4%
cell number in FTS-treated cells as a percentage of controls (avg) ([1]; FTS 100 uM): 2%
IC50 ([1]; Homo sapiens, T-cell): 25 µM
cell number in FTS-treated cells as a percentage of controls (avg) ([2]; FTS 12.5 uM): 89%
cell number in FTS-treated cells as a percentage of controls (avg) ([2]; FTS 25 uM): 78%
cell number in FTS-treated cells as a percentage of controls (avg) ([2]; FTS 50 uM): 71%
cell number in FTS-treated cells as a percentage of controls (avg) ([2]; FTS 75 uM): 32%
cell number in FTS-treated cells as a percentage of controls (avg) ([2]; FTS 100 uM): 12%
IC50 ([2]; Homo sapiens, CCRF-CEM): 50 µM
cell number in FTS-treated cells as a percentage of controls (avg) ([3]; FTS 12.5 uM): 88%
cell number in FTS-treated cells as a percentage of controls (avg) ([3]; FTS 25 uM): 53%
cell number in FTS-treated cells as a percentage of controls (avg) ([3]; FTS 50 uM): 38%
cell number in FTS-treated cells as a percentage of controls (avg) ([3]; FTS 75 uM): 22%
cell number in FTS-treated cells as a percentage of controls (avg) ([3]; FTS 100 uM): 4%
IC50 ([3]; Homo sapiens, HSB2): 25 µM
cell number in FTS-treated cells as a percentage of controls (avg) (K562 cells (Human, CML) [4]; FTS 6.25 uM): 100%
cell number in FTS-treated cells as a percentage of controls (avg) (K562 cells (Human, CML) [4]; FTS 12.5 uM): 115%
cell number in FTS-treated cells as a percentage of controls (avg) (K562 cells (Human, CML) [4]; FTS 25 uM): 107%
cell number in FTS-treated cells as a percentage of controls (avg) (K562 cells (Human, CML) [4]; FTS 50 uM): 37%
cell number in FTS-treated cells as a percentage of controls (avg) (K562 cells (Human, CML) [4]; FTS 75 uM): 14%
cell number in FTS-treated cells as a percentage of controls (avg) (K562 cells (Human, CML) [4]; FTS 100 uM): 1%
IC50 (K562 cells (Human, CML) [4]; [10]): 50 µM
cell number in FTS-treated cells as a percentage of controls (avg) ([5]; FTS 6.25 uM): 63%
cell number in FTS-treated cells as a percentage of controls (avg) ([5]; FTS 12.5 uM): 61%
cell number in FTS-treated cells as a percentage of controls (avg) ([5]; FTS 25 uM): 33%
cell number in FTS-treated cells as a percentage of controls (avg) ([5]; FTS 50 uM): 24%
cell number in FTS-treated cells as a percentage of controls (avg) ([5]; FTS 75 uM): 11%
cell number in FTS-treated cells as a percentage of controls (avg) ([5]; FTS 100 uM): 5%
IC50 [5, 10]: 20 µM
IC50 ([6]; Homo sapiens, U-937, read-out: IC50 for FTS inhibition of leukemia cell growth): 70 µM
cell number in FTS-treated cells as a percentage of controls (avg) ([6]; FTS 12.5 uM): 104%
cell number in FTS-treated cells as a percentage of controls (avg) ([6]; FTS 25 uM): 82%
cell number in FTS-treated cells as a percentage of controls (avg) ([6]; FTS 50 uM): 82%
cell number in FTS-treated cells as a percentage of controls (avg) ([6]; FTS 75 uM): 32%
cell number in FTS-treated cells as a percentage of controls (avg) ([6]; FTS 100 uM): 9%
cell number in FTS-treated cells as a percentage of controls (avg) (HL-60 cells (AML); FTS 6.25 uM): 76%
cell number in FTS-treated cells as a percentage of controls (avg) (HL-60 cells (AML); FTS 12.5 uM): 69%
cell number in FTS-treated cells as a percentage of controls (avg) (HL-60 cells (AML); FTS 25 uM): 82%
cell number in FTS-treated cells as a percentage of controls (avg) (HL-60 cells (AML); FTS 50 uM): 67%
cell number in FTS-treated cells as a percentage of controls (avg) (HL-60 cells (AML); FTS 75 uM): 31%
IC50 (HL-60 cells (AML); [10]): 60 µM
sensitization of K562 cells to GLEEVEC (K562 cells (Human, CML) [7]; FTS 70 μM with GLEEVEC 200 nM): chemosensitized the K562 cells to GLEEVEC
cells in sub-G1 (K562 cells (Human, CML) [7]; FTS only, 70 μM): 8%
lineage response (PLT, HGB or ANC) over the course of treatment ([8]; five patients, advanced MDS, AML or CML refractory to chemotherapy, 200 to 600 mg b.i.d., days 1 to 21 of a 28 day cycle): improvement in one lineage
lineage response (PLT, HGB, ANC) over the course of treatment ([8]; one patient, advanced MDS refractory to chemotherapy, 200 b.i.d. (400 mg daily), days 1 to 21 of a 28 day cycle): improvement in three lineages
ANC, best level observed [8, 11]: 4.503e+09 L⁻¹
ANC, baseline level [8, 11]: 0.285 to × 10^9/L
ANC, best level observed [8, 12]: 9.54e+08 L⁻¹
ANC, baseline level [8, 12]: 0.144 to × 10^9/L
HGB, best level observed ([8]; person, CML, FTS 600 mg b.i.d.): 11.4 g/dL
HGB, baseline level ([8]; person, CML, FTS 600 mg b.i.d.): 9.3 to g/dL
PLT, best level observed ([8]; person, MDS, FTS 200 mg b.i.d.): 5.4e+10 L⁻¹
PLT, baseline level ([8]; person, MDS, FTS 200 mg b.i.d.): 21 to × 10^9/L
HGB, best level observed ([8]; person, MDS, FTS 400 mg b.i.d.): 10.4 g/dL
HGB, baseline level ([8]; person, MDS, FTS 400 mg b.i.d.): 9.7 to g/dL
ANC, best level observed [8, 13]: 9.7e+08 L⁻¹
HGB, best level observed [8, 13]: 12.7 g/dL
PLT, best level observed [8, 13]: 1.05e+11 L⁻¹
ANC, baseline level [8, 13]: 0.40 to × 10^9/L
HGB, baseline level [8, 13]: 10.4 to g/dL
PLT, baseline level [8, 13]: 53 to × 10^9/L
IC50 ([9]; Homo sapiens, seven leukemia cell lines, read-out: half maximal inhibitory concentration (IC50) values, range over the cell lines): 20 to 70 µM
growth inhibition, result in words ([9]; seven cell lines): inhibited growth of each of seven cell lines

Cc1ccc(NC(=O)c2ccc(CN3CCN(C)CC3)cc2)cc1Nc1nccc(-c2cccnc2)n1 [GLEEVEC, reference compound]
cells in sub-G1 (K562 cells (Human, CML) [7]; GLEEVEC only, 200 nM): 13%
